As a reminder, the efflux ratio is the permeability from basolateral to apical divided by that in the opposite direction, in the common usage. In general, Papp A→B refers to the apparent permeability from the apical to the basolateral side of a cell layer. For orientation: Papp B→A means how fast a substance crosses the layer from the basolateral side. As a reminder, the AUC is concentration integrated over time. By Cmax is commonly meant the peak of the concentration-time curve. A word on the Tmax: it is the time at which the peak concentration occurs. The clearance is the rate of elimination divided by the concentration. By half-life is commonly meant the time needed for the level to fall by half in the phase considered. For orientation: pIC50 means the negative decadic logarithm of the IC50, by convention in mol/L.

pIC50: −log10 of the molar value.

One data set is described as follows: Caco-2 permeability. The note with it: human. The data set is classed as in vitro ADME. As for the experimental part: Example 54: Investigation of the Caco-2 Data of the Compounds of the Present Invention
Medium: DMEM (Corning), FBS (Corning), double antibody (Solarbio), 96-well HTS transwell plate (Corning), Caco-2 cells.
Experimental method: Caco-2 cells were cultured on 96-well HTS transwell plate for 14-18 days, and the TEER value of each well was detected to ensure that the cells in each well formed a complete monolayer. Drug was added and it was incubated for 2h to detect the drug concentrations of A-B and B-A.
Data processing: PappA-B and PappB-A values were calculated: Papp=(VA×[drug]acceptor)/(Area×Time×[drug]initial, donor); Efflux Ratio was calculated: Efflux Ratio=Papp(B-A)/Papp(A-B).

A short description of data set [1]: Cynomolgus monkey pharmacokinetics. Set-up: AUC: concentration or dose not given beside the values. The data set is classed as in vivo. The note with it: for AUC / Cmax / Tmax / clearance / half-life / Vd: male, plasma; for Vd: read-out: Vss. From the text:
(§1) Example 53: Investigation of the Pharmacokinetic Characteristics of the Compounds of the Present Invention
(§2) SD rats: male, 180-250 g, purchased from Guangdong Medical Laboratory Animal Center. Cynomolgus monkey: male, 4-6 kg, purchased from Guangzhou Chunsheng Biological Research Institute Co., Ltd. Beagle dog: male, 8-12 kg, developed in Kanglong Chemical (Ningbo) New Drug Technology Co., Ltd.
(§3) Reagents: DMSO (dimethyl sulfoxide), PEG-400 (polyethylene glycol 400), normal brine, heparin, acetonitrile, formic acid, and propranolol (internal standard) are commercially available.
(§4) Instrumentation: Thermo Fisher Scientific LC-MS (U300 UPLC, TSQ […] ULTRA triple quadrupole mass spectrometer).
(§5) The compound was weighed and dissolved in DMSO-PEG-400-physiological brine (5:60:35, v/v/v) system. After the rats/monkeys were administered intravenously or by gavage, 200 μL of venous blood was collected at 5 min (not collected when administered by gavage), 15 min, 30 min, 1 h, 2 h, 4 h, 6 h, 8 h, and 24 h in heparinized EP tubes, centrifuged at 12000 rpm for 2 min, and the plasma was frozen at −80° C. for testing. A certain amount of the test substance was precisely weighed and dissolved in DMSO to 1 mg/mL, which was used as a stock solution. An appropriate amount of compound stock solution was accurately pipetted and diluted with acetonitrile to prepare a standard series of solutions. 20 μL of each of the above standard series solutions were accurately pipetted, added with 180 μL of blank plasma, vortexed and mixed to prepare plasma samples equivalent to plasma concentrations of 1, 3, 10, 30, 100, 300, 1000, 3000 and 5000 ng/mL. Two-sample analysis was performed for each concentration to establish a standard curve. 20 μL of plasma was taken out, added with 200 μL of internal standard propranolol (5 ng/mL) in acetonitrile, vortexed and mixed. It was centrifuged at 4000 rpm for 5 min, and the supernatant was collected for LC-MS analysis. LC-MS detection conditions were as follows:
(§6) Chromatographic column: Thermo Scientific […] GOLD C-18 UPLC column, 100*2.1 mm, 1.9 μm.
(§7) Mobile phase: water (0.1% formic acid)-acetonitrile for gradient elution according to the table below.
(§8) After blood drug concentrations being detected by LC-MS, WinNonlin 6.1 software was used to calculate pharmacokinetic parameters by non-compartmental model method.

The next data set in a line: Rat pharmacokinetics. The note with it: for AUC / Cmax / Tmax / clearance / half-life / Vd: male, SD, plasma; for Vd: read-out: Vss. Set-up: AUC: concentration or dose not given beside the values. The data set is classed as in vivo, SD rats.
Source text: as §1, §2, §3, §4, §5, §6, §7, §8

The target in another data set is Human Factor XIa (Homo sapiens, UniProt P03951). The data set is described as follows: Inhibition of human coagulation factor XIa by absorptiometry (substrate S-2366). The data set is classed as biochemical. Conditions: 37° C., 20 min incubation, absorbance 405 nm; read-out: hFXIa IC50. As to the method:
Example 50: Detection of the Biological Activity of the Compounds of the Present Invention on the Inhibition of Human Coagulation Factor XIa by Absorptiometry
Buffer: 145 mM NaCl, 5 mM KCl, 1 mg/mL PEG 8000, 30 mM HEPES, pH 7.4
10 mM test compound dissolved in 100% DMSO was diluted with 100% DMSO to […]; 98 μL of FXIa enzyme solution (77.7 ng/mL) was added to each well of a 96-well plate, and 98 μL of buffer was added to the blank wells. 2 μL of compounds of different concentrations were added, and the blank and control wells were added with DMSO instead. They were mixed with a shaker, and incubated at 37° C. for 20 minutes.
Finally, 100 μL of 800 μM substrate was added to each well, and its absorbance was measured at 405 nm.

The next data set deals with human plasma. The data set is described as follows: Anticoagulant effect on human plasma in vitro (APTT determination). The format is biochemical. The note with it: for aPTT EC1.5×: concentration giving APTT of 1.5× blank control; for aPTT EC2×: concentration giving APTT of 2× blank control. As to the method: Example 51: Determination of the Anticoagulant Effect of the Compounds of the Present Invention on Human Plasma In Vitro
Plasma: Human blood was collected in a vacuum blood collection tube containing 3.2% sodium citrate (volume ratio 1:9), centrifuged at 3000 rpm for 10 min at room temperature, and the plasma was collected, divided into EP tubes, and stored at −80° C.
Reagents: APTT assay kit (Activated partial thromboplastin time assay kit, mindray), calcium chloride solution.
Instrument: coagulation meter (mindray, C2000-A)
The frozen human plasma in aliquots was thawed at room temperature and mixed well. 10 mM test compound dissolved in 100% DMSO was diluted with 100% DMSO to 1500, 750, 375, 187.5, 93.75, 46.88, 23.44, 11.72 μM. 98 μL of human plasma was added to a 1.5 mL EP tube, then 2 μL of compounds of different concentrations were added, and 2 μL of 100% DMSO was added for the blank group. They were incubated under a water bath at 37° C. for 10 min, and the samples were placed in the corresponding position of the coagulation analyzer to conduct APTT determination of the compounds.
Curve fitting was performed with GraphPad Prism software, and EC1.5× and EC2× values were calculated respectively, i.e., the concentrations of the compounds corresponding to the APTT of 1.5× and 2× blank control group.

Setting [2] is: Caco-2 monolayer, 2h incubation.

Sequence of Human Factor XIa (P03951 388-625 limits assumed): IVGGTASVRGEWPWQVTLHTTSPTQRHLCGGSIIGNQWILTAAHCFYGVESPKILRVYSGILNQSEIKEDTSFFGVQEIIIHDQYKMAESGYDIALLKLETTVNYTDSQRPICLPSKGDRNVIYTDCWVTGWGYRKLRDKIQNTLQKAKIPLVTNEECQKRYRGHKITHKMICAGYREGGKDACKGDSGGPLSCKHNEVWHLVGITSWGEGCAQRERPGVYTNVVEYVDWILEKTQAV
Sequence of Human Factor XIa (P03951 19-387 partner limits assumed): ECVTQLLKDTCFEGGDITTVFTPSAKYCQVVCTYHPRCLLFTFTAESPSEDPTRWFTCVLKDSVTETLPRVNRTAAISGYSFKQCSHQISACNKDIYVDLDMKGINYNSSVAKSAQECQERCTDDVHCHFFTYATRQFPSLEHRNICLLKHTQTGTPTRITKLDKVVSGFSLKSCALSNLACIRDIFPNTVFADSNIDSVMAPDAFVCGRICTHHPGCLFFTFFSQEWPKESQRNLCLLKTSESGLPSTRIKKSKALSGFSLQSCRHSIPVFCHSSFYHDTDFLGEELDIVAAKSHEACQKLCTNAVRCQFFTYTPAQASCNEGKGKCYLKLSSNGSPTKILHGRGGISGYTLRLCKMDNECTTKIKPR

Turning to `COc1cn([C@@H](Cc2ccccc2)C(=O)Nc2ccc(C(=O)O)cc2)c(=O)cc1-c1cc(Cl)ccc1C(C)=O` [Compound B, (S)-4-(2-(4-(2-acetyl-5-chlorophenyl)-5-methoxy-2-oxopyridinium-1(2H)-yl)-3-phenylpropanamido)benzoic acid, reference compound], in “Caco-2 permeability” (Caco-2, Papp(B-A)/Papp(A-B)), the efflux ratio at 2 h was 8.75. In “Caco-2 permeability” (setting [2]), this compound displayed a Papp A→B at 2 h of 1.55 ×10⁻⁶ cm/s and a Papp B→A at 2 h of 13.6 ×10⁻⁶ cm/s. The same compound registered a F in data set [1] (ig) of 4.1%. In data set [1] (iv), the AUC amounted to 4220 ng·h/mL, the Cmax amounted to 8760 ng/mL, the Tmax amounted to 4.98 min and the clearance is 4.1 mL/min/kg. Further, in data set [1] (iv), the half-life was 72 min and the Vd is 0.2 L/kg. Also, in data set [1] (po, ig), the AUC is 1490 ng·h/mL, the Cmax is 108 ng/mL, the Tmax worked out at 120 min and the half-life is 480 min.

`CCOc1nn([C@@H](Cc2ccccc2)C(=O)Nc2ccc(C(=O)O)cc2)c(=O)cc1-c1cc(Cl)ccc1C(C)=O` [Example 16, (S)-4-(2-(4-(2-acetyl-5-chlorophenyl)-3-ethoxy-6-oxopyridazin-1(6H)-yl)-3-phenylpropanamido)benzoic acid] had a F in “Rat pharmacokinetics” (ig) of 8.1%. Besides, in “Rat pharmacokinetics” (iv), the AUC came out at 1090 ng·h/mL, the Cmax was 2530 ng/mL, the time of peak concentration (Tmax) turned out to be 4.98 min and the clearance was determined as 16.6 mL/min/kg. In addition, in the data set “Rat pharmacokinetics” (iv), the half-life was 40.6 min and the Vd is 0.444 L/kg. In addition, in the data set “Rat pharmacokinetics” (po, ig), the AUC amounted to 481 ng·h/mL, the Cmax was found to be 160 ng/mL, the time to peak (Tmax) turned out to be 22.5 min and the half-life was 81 min. In addition, on Human Factor XIa, the pIC50 is 7.88. Moreover, in the data set with human plasma, the “aPTT EC1.5×” value is 1.005 µM and the “aPTT EC2×” value turned out to be 4.768 µM.

In “Rat pharmacokinetics” (ig), `COCCOc1nn([C@@H](Cc2ccccc2)C(=O)Nc2ccc(C(=O)O)cc2)c(=O)cc1-c1cc(Cl)ccc1C(C)=O` [Example 21, (S)-4-(2-(4-(2-acetyl-5-chlorophenyl)-3-(2-methoxyethoxy)-6-oxopyridazin-1(6H)-yl)-3-phenylpropanamido)benzoic acid] showed an F of 14.9%. Moreover, in the data set “Rat pharmacokinetics” (iv), the AUC worked out at 743 ng·h/mL, the highest concentration (Cmax) came to 1600 ng/mL, the Tmax came out at 5.99 min and the clearance is 25.3 mL/min/kg. In “Rat pharmacokinetics” (iv), the half-life is 29.5 min and the Vd stood at 0.277 L/kg. Besides, in “Rat pharmacokinetics” (po, ig), the AUC is 608 ng·h/mL, the Cmax turned out to be 166 ng/mL, the time of peak concentration (Tmax) stood at 90 min and the half-life was 139 min. Further, the pIC50 on Human Factor XIa was 7.66. The compound further showed a F in data set [1] (ig) of 6.3%. In data set [1] (iv), the AUC was 455 ng·h/mL, the Cmax is 1010 ng/mL, the Tmax is 4.98 min and the clearance came out at 18.3 mL/min/kg. Moreover, in data set [1] (iv), the half-life was 76.2 min and the Vd was found to be 0.699 L/kg. For the same compound, in data set [1] (po, ig), the AUC was 357 ng·h/mL, the peak level (Cmax) was 27.2 ng/mL, the Tmax was found to be 90 min and the half-life was 684 min. In the data set with human plasma, the “aPTT EC1.5×” value stood at 0.777 µM and the “aPTT EC2×” value came out at 3.848 µM.

Compound `CC(=O)c1ccc(Cl)cc1-c1cc(=O)n([C@@H](Cc2ccccc2)C(=O)Nc2ccc(C(=O)O)cc2)nc1OC1COC1` [Example 24, (S)-4-(2-(4-(2-acetyl-5-chlorophenyl)-6-oxo-3-(oxetan-3-yloxy)-pyridazine-1(6H)-yl)-3-phenylpropanamido)benzoic acid] gave a F in the data set “Rat pharmacokinetics” (ig) of 3.9%. In the data set “Rat pharmacokinetics” (iv), the AUC is 457 ng·h/mL, the Cmax stood at 1270 ng/mL, the time to peak (Tmax) was found to be 4.98 min and the clearance came out at 36.5 mL/min/kg. Moreover, in the data set “Rat pharmacokinetics” (iv), the half-life is 168 min and the Vd stood at 1.14 L/kg. In addition, in “Rat pharmacokinetics” (po, ig), the AUC was determined as 93.5 ng·h/mL, the highest concentration (Cmax) came out at 43.7 ng/mL, the Tmax was found to be 30 min and the half-life is 104 min. Besides, the pIC50 on Human Factor XIa is 7.64. In addition, in the data set on human plasma, the “aPTT EC1.5×” value was 0.769 µM and the “aPTT EC2×” value came to 2.785 µM.

Regarding `CC(=O)c1ccc(Cl)cc1-c1cc(=O)n([C@@H](Cc2ccccc2)C(=O)Nc2ccc(C(=O)O)cc2)nc1OC(F)F` [Example 25, (S)-4-(2-(4-(2-acetyl-5-chlorophenyl)-3-(difluoromethoxy)-6-oxopyridazin-1(6H)-yl)-3-phenylpropanamido)benzoic acid], in the data set “Rat pharmacokinetics” (ig), the F stood at 8.6%. Besides, in the data set “Rat pharmacokinetics” (iv), the exposure (AUC) amounted to 889 ng·h/mL, the peak level (Cmax) was 1780 ng/mL, the Tmax stood at 4.98 min and the clearance amounted to 22.6 mL/min/kg. In the data set “Rat pharmacokinetics” (iv), the half-life was 48 min and the Vd is 0.915 L/kg. In the data set “Rat pharmacokinetics” (po, ig), the AUC amounted to 461 ng·h/mL, the Cmax was 125 ng/mL, the Tmax was determined as 37.5 min and the half-life is 158 min. For the same compound, at Human Factor XIa, the pIC50 is 7.73. Moreover, in the data set on human plasma, the “aPTT EC1.5×” value stood at 1.782 µM and the “aPTT EC2×” value was 9.452 µM.

Source of the values: US20230027295A1, “FXIA INHIBITORS AND PREPARATION METHOD THEREFOR AND PHARMACEUTICAL USE THEREOF” (Shenzhen Salubris Pharmaceuticals Co., Ltd., priority 2019, published 2023).
